Earlier results in patent US8877698B2, “Method and composition for disinfecting hard surfaces” (priority 2001, dated 2014).

System: Mycobacterium tuberculosis var. bovis and poliovirus

Structure (SMILES): CCO [ethanol]
- concentrations needed to kill resistant organisms: 70-90%
